According to US11590117B2, “Treatment of a hematologic malignancy with 2-(4-chlorophenyl)-n-((2-(2,6-dioxopiperidin-3-yl)-1-oxoisoindolin-5-yl)methyl)-2,2-difluoroacetamide” (priority 2016, dated 2023):
Read-outs that look alike come from different tables or passages of the source.

Key:
Assay type in all cases: cell-based
AML cell lines = assay: CellTiter-Glo (CTG) cell proliferation assay, 72 hours, panel of 11 AML cell lines; conditions: Homo sapiens, 10 out of the 11 AML cell lines tested (sensitive lines), read-out: antiproliferative IC50 values (range)
Method: Preparation of Solutions of Test Article: Compounds were plated into black 384-well plates (Corning Inc.) to a final DMSO volume of 0.1% assuming a maximal volume of 50 μL. A 10-point dose response starting at 10 μM with a 1:3 dilution was printed in duplicate by acoustic dispense using the EDC ATS-100 platform.
Cell Proliferation Assays: The effect of Compound 1 on the proliferation/viability of the hematological cell lines (Table 1 Table, Table 2 and Table 3), THLE-2, or PBMCs was assessed after 72 hours incubation using CTG (Promega), according to manufacturer's instructions. Hematological cell lines were dispensed into compound plates by a Multidrop™ Combi Reagent Dispenser (Thermo Scientific, Waltham, Mass.) at a concentration of 0.1 to 0.3×10^6 cells per mL in a 50 μL total volume. […] At 72 hours, 25 μL per well of CTG was dispensed by a Multidrop™ Combi Reagent Dispenser and adenosine triphosphate (ATP) release by viable cells was measured as relative luminescence units after 30 minutes using the Envision platform.
Results. […] Compound 1 inhibited cell proliferation in 10 out of 11 AML cell lines assessed, as determined by the quantitative assessment of ATP levels present in the media after 72 hours. […]
Proliferation was assessed using the CellTitre-Glo® assay. […] The IC50 for inhibition of cell growth by Compound 1 was determined for each cell line using ActivityBase software.

MOLM-13 = assay: IncuCyte live cell imaging of cell viability, Red-labeled cell line; conditions: Homo sapiens, Red-labeled MOLM-13, read-out: Inhibition of Cell Viability EC50
Method: (§1) Derivation of Red-labeled Acute Myeloid Leukemia Cell Lines: Twelve cell lines, including AML-193, HL-60, KG-1, ML-2, MOLM-13, MV-4-11, NOMO-1, OCI-AML2, OCI-AML3, SIG-M5, TF-1, and THP-1, were stably transduced with Red lentivirus. Cells were plated in 6-well plates in growth media, incubated with 8 µg/mL polybrene (EMD Millipore Cat no. TR-1003-G) followed by infection with CellPlayer™ NucLight™ Red-lentiviral particles (Essen Biosciences Cat no. 4478) at a multiplicity of infectivity (MOI) of 0.5 to 2.5 for 24 hours. MOI refers to the ratio of virus particles to cells. Virus-containing media was replaced with fresh growth media and incubated for an additional 24 to 48 hours, followed by selection with Zeocin (500 to 2000 μg/mL), a derivative of bleomycin (Life Technologies-Invitrogen Cat no. R250-01). Cells were selected with fresh Zeocin every 3 to 4 days for 3 to 8 weeks. Cells were periodically viewed using fluorescent microscopy for nuclear-restricted red fluorescence. Zeocin selection was terminated once the population was confirmed to stably fluoresce red. All Red-labeled cell lines were acclimated to EMEM containing 20% FBS, with or without GM-CSF supplementation, allowing for optimal live cell imaging.
(§2) Incubation of Cell Cultures with Compound 1: Compound 1 was provided for studies by Celgene chemistry group at a stock concentration of 30 mM in 20 μL dimethyl sulfoxide (DMSO) frozen. Costar 96-well cell culture plates (Corning Cat no. 3595) were coated with 100 μL of 10 µg/mL fibronectin (Sigma-Aldrich Cat no. F1141) for 4 hours at 37° C. and immediately used or refrigerated overnight for later use. Cells (3000 to 6000 cells) were plated in growth medi in fibronectin-coated 96-well plates and incubated for a minimum of a few hours to overnight. Cells were incubated with a 12-point concentration response in triplicate with Compound 1 ([…]) including DMSO and Media controls. A 3-fold serial dilution of Compound 1 starting from a concentration of 200 μM in 0.6% DMSO (diluted in Media) was performed. For most sensitive cell lines, a 3-fold serial dilution of Compound 1 starting from a concentration of 20 μM in 0.6% DMSO (diluted in media) was performed. A volume of 5 μL or 10 μL for each dilution was added to 100 μL or 200 μL cells, respectively (0.3% DMSO final) and incubated for live cell imaging.
(§3) Live Cell Imaging on IncuCyte Zoom: Following incubation of cells with Compound 1, diluted Caspase 3/7 reagent (Essen Biosciences Cat no. 4440) is added to each well. The Caspase-3/7 reagent couples the activated caspase-3/7 recognition motif (DEVD) to NucView™488, a DNA intercalating dye. The cleavage of substrate by activated caspase-3/7 results in the release of the DNA dye and green fluorescent staining of nuclear DNA. This allows imaging of cells undergoing caspase-3/7 mediated apoptosis over time. Caspase-3/7 activation was quantified using the IncuCyte™ ZOOM basic analyzer. Red-labeled cell lines were also imaged over time using the IncuCyte™ ZOOM basic analyzer, for determination of both cell doubling time and Compound 1 effect on cell viability. Experiments were performed at least two times in each cell line.
(§4) Next, a 4 parameter log-logistic model was used to determine relative EC50 at each time point by the ‘drm’ function from the R ‘drc’ package (Ritz C, Streibig J C. Bioassay Analysis using R. J. Statist. Software 2005; 12(5):1-22). Goodness of fit was measured by R squared (coefficient of determination or the amount of variation explained by the model fit) of ≥80%, and EC50 parameter was assessed by having a ratio of standard error to the parameter of ≤40%, and the presence of at least one concentration point above and below the reported EC50.
(§5) Twelve Red-labeled human AML cell lines, established as described above, were incubated with Compound 1 dose range (0 to 10 μM) and Red fluorescence or Object count was imaged over time, as described above. […]

TF-1 = assay: as above; conditions: Homo sapiens, Red-labeled TF-1, read-out: Inhibition of Cell Viability EC50
Method: as §1, §2, §3, §4, §5

MV4-11 = assay: as above; conditions: Homo sapiens, Red-labeled MV4-11, read-out: Inhibition of Cell Viability EC50
Method: as §1, §2, §3, §4, §5

OCI-AML2 = assay: as above; conditions: Homo sapiens, read-out: Inhibition of Cell Viability EC50
Method: as §1, §2, §3, §4, §5

## O=C1CCC(N2Cc3cc(CNC(=O)C(F)(F)c4ccc(Cl)cc4)ccc3C2=O)C(=O)N1 (centres unmarked) [Compound 1, 2-(4-chlorophenyl)-N-((2-(2,6-dioxopiperidin-3-yl)-1-oxoisoindolin-5-yl)methyl)-2,2-difluoroacetamide]
AML cell lines
  IC50: 3 to 75 nM
MOLM-13; 48 hr
  EC50: 143 nM
MOLM-13; 72 hr
  EC50: 208 nM
MOLM-13; 96 hr
  EC50: 248 nM
TF-1; 48 hr
  EC50: 30 nM
TF-1; 72 hr
  EC50: 36 nM
TF-1; 96 hr
  EC50: 58 nM
MV4-11; 48 hr
  EC50: 40 nM
MV4-11; 72 hr
  EC50: 27 nM
MV4-11; 96 hr
  EC50: 26 nM
OCI-AML2; 24 hr
  EC50: 387 nM
OCI-AML2; 48 hr
  EC50: 83 nM
OCI-AML2; 72 hr
  EC50: 42 nM
OCI-AML2; 96 hr
  EC50: 40 nM
